± gives the standard deviation of the averaged measurements.
Tests used:
CANERTINIB [1] = compound: T1, C=CC(=O)Nc1cc2c(Nc3ccc(F)c(Cl)c3)ncnc2cc1OCCCN1CCOCC1 [CANERTINIB]; assay: surviving fraction relative to DMSO-only wells; higher = less growth inhibition; conditions: exposure time: 5 days
Procedure, shortened: (§1)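 Viability values are CellTiter-Glo luminescence readings, given as surviving fraction against the median of DMSO-only wells. The readings were taken after 10 minutes at room temperature, following five days of continuous exposure to inhibitors at 0.5, 1, 5, 10, 50, 100, 500 and 1000 nM that began 24 hours after log-phase tumour cell lines were seeded at 250–500 cells per well in 384-well plates. Every line was screened three times and kept only if replicate Pearson r >0.7 and median Z' >0.3.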

SNX-5422 [2] = compound: T2, CC1(C)CC(=O)c2c(C(F)(F)F)nn(-c3ccc(C(N)=O)c(N[C@H]4CC[C@H](OC(=O)CN)CC4)c3)c2C1 [SNX-5422]; assay: as above; conditions: exposure time: 5 days
Procedure, shortened: as §1

SAPACITABINE [3] = compound: T3, CCCCCCCCCCCCCCCC(=O)Nc1ccn([C@@H]2O[C@H](CO)[C@@H](O)[C@@H]2C#N)c(=O)n1 [SAPACITABINE]; assay: as above; conditions: exposure time: 5 days
Procedure, shortened: as §1

BI-2536 [4] = compound: T4, CC[C@@H]1C(=O)N(C)c2cnc(Nc3ccc(C(=O)NC4CCN(C)CC4)cc3OC)nc2N1C1CCCC1 [BI-2536]; assay: as above; conditions: exposure time: 5 days
Procedure, shortened: as §1

AFATINIB [5] = compound: T5, CN(C)C/C=C/C(=O)Nc1cc2c(Nc3ccc(F)c(Cl)c3)ncnc2cc1O[C@H]1CCOC1 [AFATINIB]; assay: as above; conditions: exposure time: 5 days
Procedure, shortened: as §1

MDV3100 [6] = compound: T6, CNC(=O)c1ccc(N2C(=S)N(c3ccc(C#N)c(C(F)(F)F)c3)C(=O)C2(C)C)cc1F [MDV3100]; assay: as above; conditions: exposure time: 5 days
Procedure, shortened: as §1

[7] = compound: Cn1cc(C2=Nc3cc(NC(=O)C(N)C4CCCCC4)cc4c3C2=CNNC4=O)cn1; assay: as above; conditions: exposure time: 5 days
Procedure, shortened: as §1

TIOGUANINE [8] = compound: T7, Nc1nc2[nH]cnc2c(=S)[nH]1 [TIOGUANINE]; assay: as above; conditions: exposure time: 5 days
Procedure, shortened: as §1

CANERTINIB [9] = compound: T1, CANERTINIB; assay: area under dose-response curve of surviving fraction (unscaled, Aref=0) (surviving fraction x log10(nM)); higher = more resistant; conditions: exposure time: 5 days; dose range 0.5-1000 nM
Procedure, shortened: (§2)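 Tumour cell lines in 384-well plates were exposed for five days to eight inhibitor concentrations from 0.5 to 1000 nM. Viability was read by CellTiter-Glo luminescence, normalised to DMSO-only wells, in three screens per line. Dose-response survival curves were fitted to surviving fractions by 3-parameter logistic regression in the drc R package. Area under the curve is the unscaled activity area (Aref = 0) over log10 dose.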

SNX-5422 [10] = compound: T2, SNX-5422; assay: as above; conditions: exposure time: 5 days; dose range 0.5-1000 nM
Procedure, shortened: as §2

SAPACITABINE [11] = compound: T3, SAPACITABINE; assay: as above; conditions: exposure time: 5 days; dose range 0.5-1000 nM
Procedure, shortened: as §2

BI-2536 [12] = compound: T4, BI-2536; assay: as above; conditions: exposure time: 5 days; dose range 0.5-1000 nM
Procedure, shortened: as §2

AFATINIB [13] = compound: T5, AFATINIB; assay: as above; conditions: exposure time: 5 days; dose range 0.5-1000 nM
Procedure, shortened: as §2

MDV3100 [14] = compound: T6, MDV3100; assay: as above; conditions: exposure time: 5 days; dose range 0.5-1000 nM
Procedure, shortened: as §2

TIOGUANINE [15] = compound: T7, TIOGUANINE; assay: as above; conditions: exposure time: 5 days; dose range 0.5-1000 nM
Procedure, shortened: as §2

SCC47 HEADNECK
surviving fraction (CANERTINIB [1]; 0.5 nM): 0.828 ± 0.025
surviving fraction (CANERTINIB [1]; 1 nM): 0.921 ± 0.088
surviving fraction (CANERTINIB [1]; 5 nM): 0.881 ± 0.048
surviving fraction (CANERTINIB [1]; 10 nM): 0.889 ± 0.028
surviving fraction (CANERTINIB [1]; 50 nM): 0.9577 ± 0.0083
surviving fraction (CANERTINIB [1]; 100 nM): 0.805 ± 0.032
surviving fraction (CANERTINIB [1]; 500 nM): 0.681 ± 0.015
surviving fraction (CANERTINIB [1]; 1000 nM): 0.432 ± 0.044
surviving fraction (SNX-5422 [2]; 0.5 nM): 1.09 ± 0.084
surviving fraction (SNX-5422 [2]; 1 nM): 1.17 ± 0.07
surviving fraction (SNX-5422 [2]; 5 nM): 1.14 ± 0.069
surviving fraction (SNX-5422 [2]; 10 nM): 1.12 ± 0.048
surviving fraction (SNX-5422 [2]; 50 nM): 0.483 ± 0.0098
surviving fraction (SNX-5422 [2]; 100 nM): 0.184 ± 0.015
surviving fraction (SNX-5422 [2]; 500 nM): 0.0747 ± 0.0047
surviving fraction (SNX-5422 [2]; 1000 nM): 0.071 ± 0.0027
surviving fraction (SAPACITABINE [3]; 0.5 nM): 0.937 ± 0.093
surviving fraction (SAPACITABINE [3]; 1 nM): 0.939 ± 0.063
surviving fraction (SAPACITABINE [3]; 5 nM): 0.982 ± 0.063
surviving fraction (SAPACITABINE [3]; 10 nM): 0.948 ± 0.072
surviving fraction (SAPACITABINE [3]; 50 nM): 1.05 ± 0.057
surviving fraction (SAPACITABINE [3]; 100 nM): 0.988 ± 0.079
surviving fraction (SAPACITABINE [3]; 500 nM): 0.71 ± 0.033
surviving fraction (SAPACITABINE [3]; 1000 nM): 0.597 ± 0.0027
surviving fraction (BI-2536 [4]; 0.5 nM): 1.05 ± 0.095
surviving fraction (BI-2536 [4]; 1 nM): 1.01 ± 0.066
surviving fraction (BI-2536 [4]; 5 nM): 0.455 ± 0.013
surviving fraction (BI-2536 [4]; 10 nM): 0.367 ± 0.034
surviving fraction (BI-2536 [4]; 50 nM): 0.403 ± 0.046
surviving fraction (BI-2536 [4]; 100 nM): 0.464 ± 0.045
surviving fraction (BI-2536 [4]; 500 nM): 0.437 ± 0.018
surviving fraction (BI-2536 [4]; 1000 nM): 0.356 ± 0.02
surviving fraction (AFATINIB [5]; 0.5 nM): 1.05 ± 0.021
surviving fraction (AFATINIB [5]; 1 nM): 0.98 ± 0.078
surviving fraction (AFATINIB [5]; 5 nM): 0.88 ± 0.11
surviving fraction (AFATINIB [5]; 10 nM): 0.707 ± 0.037
surviving fraction (AFATINIB [5]; 50 nM): 0.629 ± 0.064
surviving fraction (AFATINIB [5]; 100 nM): 0.604 ± 0.034
surviving fraction (AFATINIB [5]; 500 nM): 0.546 ± 0.026
surviving fraction (AFATINIB [5]; 1000 nM): 0.373 ± 0.014
surviving fraction (MDV3100 [6]; 0.5 nM): 0.936 ± 0.15
surviving fraction (MDV3100 [6]; 1 nM): 0.826 ± 0.021
surviving fraction (MDV3100 [6]; 5 nM): 1 ± 0.04
surviving fraction (MDV3100 [6]; 10 nM): 1.05 ± 0.21
surviving fraction (MDV3100 [6]; 50 nM): 1.09 ± 0.17
surviving fraction (MDV3100 [6]; 100 nM): 1.03 ± 0.14
surviving fraction (MDV3100 [6]; 500 nM): 0.906 ± 0.04
surviving fraction (MDV3100 [6]; 1000 nM): 0.829 ± 0.11
surviving fraction ([7]; 0.5 nM): 1.02 ± 0.015
surviving fraction ([7]; 1 nM): 1.03 ± 0.13
surviving fraction ([7]; 5 nM): 1.1 ± 0.065
surviving fraction ([7]; 10 nM): 1.08 ± 0.11
surviving fraction ([7]; 50 nM): 1 ± 0.027
surviving fraction ([7]; 100 nM): 1.01 ± 0.054
surviving fraction ([7]; 500 nM): 0.981 ± 0.011
surviving fraction ([7]; 1000 nM): 0.81 ± 0.094
surviving fraction (TIOGUANINE [8]; 0.5 nM): 0.796 ± 0.02
surviving fraction (TIOGUANINE [8]; 1 nM): 0.834 ± 0.05
surviving fraction (TIOGUANINE [8]; 5 nM): 0.969 ± 0.043
surviving fraction (TIOGUANINE [8]; 10 nM): 0.961 ± 0.061
surviving fraction (TIOGUANINE [8]; 50 nM): 0.98 ± 0.035
surviving fraction (TIOGUANINE [8]; 100 nM): 0.966 ± 0.045
surviving fraction (TIOGUANINE [8]; 500 nM): 0.854 ± 0.082
surviving fraction (TIOGUANINE [8]; 1000 nM): 0.803 ± 0.039
area under dose-response curve (CANERTINIB [9]): 2.83
area under dose-response curve (SNX-5422 [10]): 2.08
area under dose-response curve (SAPACITABINE [11]): 3.12
area under dose-response curve (BI-2536 [12]): 1.87
area under dose-response curve (AFATINIB [13]): 2.35
area under dose-response curve (MDV3100 [14]): 3.22
area under dose-response curve (TIOGUANINE [15]): 2.97
